Molecules are shown by their SMILES. Read-outs that look alike come from different tables or passages of the source.

From article PMC10383864, “Novel 2-Sulfanylquinazolin-4(3H)-one Derivatives as Multi-Kinase Inhibitors and Apoptosis Inducers: A Synthesis, Biological Evaluation, and Molecular Docking Study” (Molecules, 2023) come the findings set out here.

One data set relates to HepG2 cells. Kind of data set: MTT cytotoxicity assay. The data set is classed as cell-based, human. As to conditions: 24 h treatment, mean ± SD of three experiments, read-out: In Vitro Cytotoxicity IC50 HepG2. As to the method:
(§1) In addition, the safety profile of the 2-sulfanylquinazolin-4(3H)-one derivatives was evaluated against normal human cells (WI38) […]. The standard MTT (3-(4,5-dimethylthiazol-2-yl)-2,5 diphenyl tetrazolium bromide) colorimetric assay protocol was used, as described by Mosmann. […] The results were expressed as growth inhibitory concentration (IC50) values.
(§2) The cell lines were obtained from ATCC (American Type Culture Collection). […] After incubation, the cells were treated with different concentrations of the synthesized compounds and incubated for 24 h. Afterward, the cells were washed with PBS, and 20 µL of MTT solution at 5 mg/mL was added, all incubated for 4 h. The MTT solution was discarded, and 100 µL of dimethyl sulfoxide (DMSO) was added per well. […] The relative cell viability in percentage was calculated as (A570 of treated cells/A570 of untreated cells) × 100.

The next data set concerns HeLa cells. Kind of data set: MTT cytotoxicity assay. Type of data set: cell-based, human. The following applies: 24 h treatment, mean ± SD of three experiments, read-out: In Vitro Cytotoxicity IC50 HeLa. How it is done:
as §1, §2

For a further data set, the system named is MCF-7 cells. Description: MTT cytotoxicity assay. The data set is classed as cell-based, human. The following applies: MCF-7, MTT, 24 h treatment, mean ± SD of three experiments, read-out: In Vitro Cytotoxicity IC50 MCF-7. How it is done: as §1, §2
The subject of a further data set is MDA-MB-231 cells. Kind of data set: MTT cytotoxicity assay. The data set is classed as cell-based, human. The following applies: MDA-MB-231, MTT, 24 h treatment, mean ± SD of three experiments, read-out: In Vitro Cytotoxicity IC50 MDA-MB-231. As to the method:
as §1, §2

Data set [1] can be described thus: MTT cytotoxicity assay, normal human cell line. Type of data set: cell-based. As to conditions: human, WI38 cells (normal human cells), 24 h treatment, mean ± SD of three experiments, read-out: In Vitro Cytotoxicity IC50 WI38. As to the method: as §1, §2
The subject of a further data set is WI38 cells. Description: MTT cytotoxicity assay, normal human cell line. Type of data set: cell-based. The following applies: 24 h treatment, mean ± SD of three experiments, read-out: In Vitro Cytotoxicity IC50 WI38. How it is done:
as §1, §2

The subject of data set [2] is HepG2, MCF-7, MDA-231, and HeLa. Kind of data set: MTT cytotoxicity assay, range over the tested cancer cell lines. Type of data set: cell-based. As to conditions: Homo sapiens, range over HepG2, MCF-7, MDA-231 and HeLa, read-out: IC50 range against all tested cancer cell lines. How it is done:
as §1, §2

`Cc1ccc(CSc2nc3ccc(F)cc3c(=O)n2-c2ccc(F)cc2)cc1` [Compound 5a, 3-(4-fluoro-Arenyl)-6-fluoro-2-(4-methyl-benzylsulfanyl)-3H-quinazolin-4-one] returned a melting point of 166 to 168 °C. In the data set on HepG2 cells (Homo sapiens, HepG2, 24 h), the IC50 was above 100 µM. In the data set on HeLa cells (Homo sapiens, 24 h), the IC50 was determined as 83.2 ± 4.1 µM. Also, the IC50 in the data set with MCF-7 cells (Homo sapiens, MCF7, 24 h) stood at 86 ± 4.4 µM. The IC50 in the data set with MDA-MB-231 cells (Homo sapiens, MDA-MB-231, 24 h) was determined as 79.1 ± 4 µM. The half-maximal inhibitory concentration (IC50) at 24 h in data set [1] was found to be 28.7 ± 2.2 µM.

`Cc1ccc(CSc2nc3ccc(F)cc3c(=O)n2-c2ccccc2)cc1` [Compound 5b, 6-Fluoro-2-(4-methyl-benzylsulfanyl)-3-Arenyl-3H-quinazolin-4-one] registered a melting point of 158 to 160 °C. In addition, the IC50 in the data set with HepG2 cells (Homo sapiens, HepG2, 24 h) is 85 ± 4.6 µM. In addition, the IC50 with HeLa cells (Homo sapiens, 24 h) is above 100 µM. Moreover, in the data set on MCF-7 cells (Homo sapiens, MCF7, 24 h), the IC50 was 91.2 ± 4.8 µM. Moreover, the IC50 in the data set with MDA-MB-231 cells (Homo sapiens, MDA-MB-231, 24 h) stood at 78.3 ± 3.9 µM. Besides, the IC50 at 24 h in data set [1] is above 100 µM.

The compound `Cc1ccc(-n2c(SCc3ccccc3)nc3ccc(F)cc3c2=O)cc1` [Compound 5c, 2-Benzylsulfanyl-6-fluoro-3-(4-methyl-Arenyl)-3H-quinazolin-4-one] registered a melting point of 156 to 158 °C. Further, the IC50 with HepG2 cells was determined as 34.3 ± 2.4 µM. In addition, the IC50 in the data set on HeLa cells was 31.2 ± 2.1 µM. For the same compound, the IC50 in the data set on MCF-7 cells amounted to 51.9 ± 3.1 µM. In addition, the half-maximal inhibitory concentration (IC50) with MDA-MB-231 cells was 26.9 ± 1.9 µM. For the same compound, the IC50 with WI38 cells worked out at 40.9 ± 2.6 µM.

On to `Cc1ccc(-n2c(SCc3ccc(F)cc3)nc3ccc(F)cc3c2=O)cc1` [Compound 5e, 2-(4-Fluoro-benzylsulfanyl)-6-fluoro-3-(4-methylArenyl)-3H-quinazolin-4-one], for which the melting point was in the range of 170 to 172 °C. Moreover, in the data set with HepG2 cells (Homo sapiens, HepG2, 24 h), the IC50 amounted to 29.5 ± 2.2 µM. For the same compound, the IC50 in the data set on HeLa cells (Homo sapiens, 24 h) came to 38.2 ± 2.3 µM. Further, the IC50 in the data set on MCF-7 cells (Homo sapiens, MCF7, 24 h) came out at 25.2 ± 1.9 µM. In addition, the IC50 with MDA-MB-231 cells (Homo sapiens, MDA-MB-231, 24 h) was found to be 19.2 ± 1.5 µM. For the same compound, the IC50 in data set [2] lay within 19.2 to 38.2 µM. For the same compound, the IC50 at 24 h in data set [1] was 55.8 ± 3.2 µM.

For `COc1cccc2c1C(=O)c1c(O)c3c(c(O)c1C2=O)C[C@@](O)(C(=O)CO)C[C@@H]3O[C@H]1C[C@H](N)[C@H](O)[C@H](C)O1` [Dox., doxorubicin, reference compound], the IC50 with HepG2 cells (Homo sapiens, HepG2, 24 h) came to 4.5 ± 0.2 µM.

Take `CCN(CC)CCNC(=O)c1c(C)[nH]c(/C=C2\C(=O)Nc3ccc(F)cc32)c1C` [Sunitinib, sunitinib, reference compound]: the IC50 in the data set with HepG2 cells (Homo sapiens, HepG2, 24 h) was 11.3 ± 1 µM; in the data set with HeLa cells (Homo sapiens, 24 h), 21.8 ± 1.7 µM; in the data set with MCF-7 cells (Homo sapiens, MCF7, 24 h), 24.8 ± 1.8 µM; in the data set with MDA-MB-231 cells (Homo sapiens, MDA-MB-231, 24 h) it was 19 ± 1.5 µM. Besides, in data set [1], the IC50 at 24 h was 77.3 ± 4.3 µM.
